Patent publication US8871758B2, “Tetrasubstituted oxathiazine derivatives, method for producing them, their use as medicine and drug containing said derivatives and the use thereof” (Sanofi, priority 2011, dated 2014)

What follows are compounds tested against T1, human 11β-HSD1 (Homo sapiens, UniProt P28845) (assay: Enzymatic 11beta-HSD1 test (SPA-based detection)). Conditions: human 11β-HSD1 microsome fraction, [1,2-3H]-cortisone substrate, NADPH, 37° C. 1 hour, read-out: IC50 (nM), Biological activity in nanomolar.
T1 construct: host or cells: microsome fraction
T1 sequence (P28845 whole entry): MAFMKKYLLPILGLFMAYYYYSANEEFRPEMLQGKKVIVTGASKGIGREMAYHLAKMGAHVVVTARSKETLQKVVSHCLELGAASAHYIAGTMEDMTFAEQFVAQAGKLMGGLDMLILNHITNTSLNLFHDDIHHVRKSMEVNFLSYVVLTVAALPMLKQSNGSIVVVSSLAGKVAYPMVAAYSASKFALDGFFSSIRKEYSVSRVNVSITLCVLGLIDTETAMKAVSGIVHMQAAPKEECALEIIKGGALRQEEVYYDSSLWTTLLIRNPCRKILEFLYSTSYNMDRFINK
Type: biochemical
Description: Enzymatic 11beta-HSD1 Test:
First of all, 20 μl of the human 11β-HSD1 microsome fraction (0.2 μg of protein), prepared in 50 mM HEPES, 0.1% BSA (w/v), were applied to a plate with 384 wells. The test compounds (0.09 μl) were applied to the assay plate in 100% DMSO. The reaction was started by addition of 20 μl of [1,2-^3H]-cortisone (0.1 μCi/[…]) in assay buffer comprising 25 mM HEPES, 100 mM KCl, 5 mM NaCl, 2 mM MgCl2 and 0.25 mM NADPH. The plate was agitated at 37° C. for 1 hour. At the same time, a stop solution comprising 20 mg/ml SPA-PVT beads, 1.6 mg/ml monoclonal cortisol antibody and 0.01 mM SSR110887 (inhibitor from the Biovitrium patent) in 50 mM HEPES, 1 M NaCl and 1 M KCl was stirred at room temperature. To stop the reaction, 25 μl of the stop solution were added to each well. The plate was agitated gently at room temperature for 1 further hour and then centrifuged at 500 gav for 1 min, in order that the SPA beads could settle out. […] The comparative compound was glycyrrhetinic acid.
Protein and radioactive substrate were dispensed with a Biomek FX unit (Beckman Coulter) for handling liquids. The test compounds were added with a Cybi-Well equipped with a 90 n1 pin tool (CyBio).
Lit.: Solly S, Mundt S S, Zokian H J, Juy-Fang Ding G, Hermanowski-Vosatka A, Strulovici B and Zheng W. High-throughput screening of 11β-Hydroxysteroid dehydrogenase type 1 in scintillation proximity format.

| IC50 [nM] | SMILES |
| --- | --- |
| 10 | CC1(C)OC(N[C@@H](CS(N)(=O)=O)c2ccc(F)cc2)=NS(=O)(=O)C1(C)C (single isomer, unassigned) [Example 14] |
| 289 | CC1(C)OC(N[C@@H]2CCC[C@@H](O)C2)=NS(=O)(=O)C1(C)C [Example 25, (1R,3R)-3-(5,5,6,6-Tetramethyl-4,4-dioxo-5,6-dihydro-4H-4lambda6-[1,4,3]oxathiazin-2-ylamino)-cyclohexanol] |
| 4 | CC1(C)OC(NC23CCC(CC2)CC3)=NS(=O)(=O)C1(C)C [Example 15, Bicyclo[2.2.2]oct-1-yl-(5,5,6,6-tetramethyl-4,4-dioxo-5,6-dihydro-4H-4lambda6-[1,4,3]oxathiazin-2-yl)-amine] |
| 560 | CC1(C)OC(N[C@H]2CCC[C@H](O)C2)=NS(=O)(=O)C1(C)C [Example 18, (1S,3S)-3-(5,5,6,6-Tetramethyl-4,4-dioxo-5,6-dihydro-4H-4lambda6-[1,4,3]oxathiazin-2-ylamino)-cyclohexanol] |
| 73 | CC1(COCc2ccccc2)OC(NC2CCCCC2)=NS(=O)(=O)C12CC2 (stereo not shown) [Example 6, (8-Benzyloxymethyl-8-methyl-4,4-dioxo-7-oxa-4lambda6-thia-5-aza-spiro[2.5]oct-5-en-6-yl)-cyclohexyl-amine] |
| 22 | CC1(C)OC(NC23CCC(F)(CC2)CC3)=NS(=O)(=O)C12CC2 [Example 8, (8,8-Dimethyl-4,4-dioxo-7-oxa-4lambda6-thia-5-aza-spiro[2.5]oct-5-en-6-yl)-(4-fluoro-bicyclo[2.2.2]oct-1-yl)-amine] |
| 462 | COCC1(C)OC(NC2CCCCC2)=NS(=O)(=O)C12CC2 (stereo not shown) [Example 4, Cyclohexyl-(8-methoxymethyl-8-methyl-4,4-dioxo-7-oxa-4lambda6-thia-5-aza-spiro[2.5]oct-5-en-6-yl)-amine] |
| 5 | C[C@H](NC1=NS(=O)(=O)C(C)(C)C(C)(C)O1)c1ccccc1F [Example 21, [(S)-1-(2-Fluoro-phenyl)-ethyl]-(5,5,6,6-tetramethyl-4,4-dioxo-5,6-dihydro-4H-4lambda6-[1,4,3]oxathiazin-2-yl)-amine] |
| 19 | CC1(C(F)(F)F)OC(NC2CCCCC2)=NS(=O)(=O)C12CC2 (stereo not shown) [Example 13, Cyclohexyl-(8-methyl-4,4-dioxo-8-trifluoromethyl-7-oxa-4lambda6-thia-5-aza-spiro[2.5]oct-5-en-6-yl)-amine] |
| 586 | CC(C)(O)C[C@H](NC1=NS(=O)(=O)C(C)(C)C(C)(C)O1)c1cccnc1 [Example 16, (S)-2-Methyl-4-pyridin-3-yl-4-(5,5,6,6-tetramethyl-4,4-dioxo-5,6-dihydro-4H-4lambda6-[1,4,3]oxathiazin-2-ylamino)-butan-2-ol] |
| 4 | CC1(C)OC(NC23CCC(F)(CC2)CC3)=NS(=O)(=O)C1(C)C [Example 9, (4-Fluoro-bicyclo[2.2.2]oct-1-yl)-(5,5,6,6-tetramethyl-4,4-dioxo-5,6-dihydro-4H-4lambda6-[1,4,3]oxathiazin-2-yl)-amine] |
| 37 | CC1(C)OC(N[C@@H](CCO)c2ccccc2)=NS(=O)(=O)C12CC2 [Example 5, (S)-3-(8,8-Dimethyl-4,4-dioxo-7-oxa-4lambda6-thia-5-aza-spiro[2.5]oct-5-en-6-ylamino)-3-phenyl-propan-1-ol] |
| 786 | CC1(CO)OC(NC2CCCCC2)=NS(=O)(=O)C12CC2 (stereo not shown) [Example 7, (6-Cyclohexylamino-8-methyl-4,4-dioxo-7-oxa-4lambda6-thia-5-aza-spiro[2.5]oct-5-en-8-yl)-methanol] |
